# Experimental data as given in patent US6806267B1, “Apoptosis-inducing compounds” (priority 1998, dated 2004).
# Legend:
# [1] = tested on: CML cell lines K562, KYO.1 and Lama 84; assay: Apoptosis in CML cell lines, cytospin and staining; type: cell-based, human; details: 24 hours (10 μM elsewhere in the source)
# K562 cells [2] = assay: Apoptosis in K562 cells, cytospin and staining; type: cell-based, human; details: K562, 16 hours
# [3] = tested on: CEM (T lymphoblastoid) cells; assay: Apoptosis in CEM cells (neo and Bcl-2 overexpressing); type: cell-based, human
# NFκB [4] = assay: NF kappa B binding activity, HL-60 nuclear extracts; type: cell-based, human; details: HL-60 cells
# Description: (§1) Cells were fractionated, and nuclear extracts were prepared as described by Stylianou et al. (1992). Briefly, cells were added to ice-cold phosphate-buffered saline and centrifuged using a swing out rotor at 136×g. They were washed in buffer A (10 mM Hepes, pH 7.9, 1.5 mM MgCl2, 10 mM KCl, […] [PMSF]) and centrifuged at 10000×g for 10 min. They were treated with buffer A+0.1% (vol/vol) Nonidet P40 on ice for 10 min. They were then centrifuged at 10000×g for 10 min and the pellet was treated with buffer C (20 mM Hepes, pH 7.9, 420 mM NaCl, 1.5 mM MgCl2, 2 mM EDTA, 20% [vol/vol] glycerol, 0.5 mM PMSF) on ice for 15 min. This material was centrifuged at 10000×g for 10 min and the supernatant was added to 75 u l of buffer D [10 mM Hepes, pH 7.9, 50 mM KCl, 0.2 mM EDTA, 20% (vol/vol) glycerol, 0.5 mM PMSF] per sample. The protein concentration in this crude nuclear extract was determined using the method of Bradford (1976). Protein (4 μg) was incubated with 10000 cpm of a ^32P-labelled oligonucleotide, containing the consensus sequence for NF kappa B, with binding buffer [40% (vol/vol) glycerol, 1 mM EDTA, 10 mM Tris, pH 7.5, 100 mM NaCl, 0.1 mg/ml nuclease free BSA] and 2 μg of poly(dI-dC) at room temperature for 30 min. Samples were resolved on a 5% native polyacrylamide gel which was subsequently dried and autoradiographed at −70° C. overnight.
# NFκB [5] = assay: NF kappa B binding activity, Hut-78 cells; type: cell-based, human
# Description: as §1
# JNK1 and JNK2 [6] = assay: Western blot of JNK activation in HL-60 cells; type: cell-based, human
# JNK1 and JNK2 [7] = assay: Western blot of JNK activation in Lama 84 and KYO.1 cells; type: cell-based, human; details: Lama 84 and KYO.1, 45 minutes
# p38 = assay: Western blot of p38 activation in K562 cells; type: cell-based, human; details: K562, 5 min up to 8 hours
# p42-44 = assay: Western blot of p42-44 activation in K562 cells; type: cell-based, human
# BCR-abl = assay: Western blot analysis of BCR-abl in CML cells; type: cell-based, human
# [8] = tested on: tyrosine phosphorylated proteins; assay: Protein tyrosine phosphorylation Western blot, K562 cells; type: cell-based, human
# Description: Jurkat and CML cells (5×10^6) were harvested by centrifuigation at 1800 g for 10 min at 4° C. After being washed once with ice-cold phosphate-buffered saline, the cell pellet was suspended in 100 μl of ice-cold lysis buffer (50 mM Tris-HCl, pH 8.0, 150 mM NaCl, 0.1%.SDS, 1% Triton X-100, 1 mM sodium 1 mM phenylmethylsulfonyl, 10 ng/ml leupeptin and 10 ng/ml of aprotinin). The cells were left to sit on ice for 10 min and then centrifuged at 20,000 g for 20 min. The resulting supernatant was stored at −70° C. until measurement of tyrosine phosphorylation. Protein determination was measured by using the Bradford assay. Equal amounts of protein were resolved by SDS-polyacrylamide gel electrophoresis in 15% gels and transferred onto polyvinylidene difluoride (PVDF) membranes. Membranes were blocked with Tris-buffered saline with Tween 20 (10 mM Tris-HCl, pH 8.0, 150 mM NaCl, 0.05% Tween 20) containing 1% w/v BSA and probed with anti-phosphotyrosine antibody. Blots were washed, incubated with goat anti-mouse IgG peroxidase conjugate and developed by ECL according to the manufacturer's recommendations.
# Jurkat cells = type: cell-based, human; details: 0.5 μM 1 hour, then etoposide 2.5 μM 1 hour
# Description: (§2) This assay was set up as described by Kohn et al., 1976 with the following modifications.
# (§3) Cells were seeded at 0.4×10^6 cells/ml and were in the logarithmic phase of growth. […] Cells harvested for the experiments were at a density of 2×10^6 cells/ml.
# (§4) Cells (1×10^6) were labelled with [^3H] thymidine (sp. act. 2 Ci/mmol) (0.2 μCi/ml) and 1 μM unlabelled thymidine, and incubated for 20 hr. Cells were harvested by centrifugation at 500×g for 5 mins following by two washes in PBS and the pellet was resuspended in 3 ml of PBS. Cells were aliquoted into 1 ml amounts in a 24 well plate and allowed to recover for 1 hr at 37° C. before treating with indicated compounds. Following treatment, cells were washed once in PBS and resuspended in 250 μl of PBS. An aliquot of cells (200 μl) was loaded directly onto a 25 mm diameter glass fiber filter, pore size of 0.2 μM. The cells were lysed on the filter by the addition of 5 ml lysis buffer (2% (w/v) SDS, 10 mM disodium EDTA (pH 10) supplemented with 0.5 mg/ml proteinase K. The lysis buffer was allowed to flow slowly through the filter without suction. Filters were washed using 3 ml wash solution (0.02M Na3EDTA pH 10) allowing it to flow without suction. Filters were eluted in the dark with an alkaline solution (0.04M EDTA plus tetrapropylammonium hydroxide (10% in H2O ) added in the amount required to give pH 12.1). The elution apparatus consisted of a filter funnel with output tubing passing through a peristaltic pump to a collector. Elution took place overnight at a flow rate of 0.05 ml/min. Following elution, filters were treated with 0.4 ml HCl (1N) for 1 hr at 70° C. followed by 2.5 ml NaOH (0.4N) for 30 min at room temp. Scintillation fluid (10 ml) was added and radioactivity remaining on the filters was determined by scintillation counting.
# K562 cells [9] = type: cell-based, human; details: 3 hours
# Description: as §2, §3, §4
# HL-60 cells = assay: Apoptosis in HL-60 cells, cytospin and Rapi-Diff staining
# [10] = HL-60 cells and the 3 CML cell lines
smiles,measurement,setting,value
"CN(C)C(=O)OC1=C(c2cccc3ccccc23)Oc2ccccc2-n2cccc21 [PBOX-6, 7-((Dimethylcarbamoyl)oxy)-6-(1-naphthyl)pyrrolo[2,1-d][1,5]benzoxazepine]",cells that had undergone apoptosis,[1],approximately 50%
same,cells that had undergone apoptosis,K562 cells [2],40-50%
same,induction of apoptosis in CEM cells overexpressing Bcl-2,[3]; Bcl-2 overexpressing,dose-dependent induction of apoptosis
same,induction of apoptosis in normal CEM cells,[3]; normal (neo) CEM,dose-dependent induction of apoptosis
same,effect on NFκB,NFκB [4],failed to affect NFκB expression
same,effect on NFκB,NFκB [5],had no effect on NFκB
same,activation of JNK,JNK1 and JNK2 [6],transient activation of 2 JNK isoforms
same,time of peak JNK activation,JNK1 and JNK2 [6],1 h
same,activation of JNK1 and JNK2,JNK1 and JNK2 [7],found to be activated
same,activation of p38,p38,failed to activate p38
same,activation of p42-44,p42-44,not activated
same,BCR-abl expression,BCR-abl; K562 and KYO.1 cells,"downregulation of BCR-abl was detected, but not until 24 hours"
same,downregulation of BCR-abl,"BCR-abl; Lama 84 cells, up to 72 hours",not detected
same,tyrosine phosphorylation status of proteins,"[8]; K562, 5, 15 or 30 min",no effect
same,tyrosine phosphorylation status of proteins,"[8]; K562, 16 hours, proteins approx 63 kDa and 71 kDa",increase in the phosphorylation of two proteins
same,effect of pretreatment on etoposide induced DNA strand breaks,Jurkat cells,did not prevent the induction of DNA strand breaks by etoposide
same,DNA strand breaks,K562 cells [9],did not show any significant increase in DNA strand breaks
same,apoptosis below a final concentration of 5 μM,HL-60 cells; HL-60 cells,negligible
same,time at which morphological signs of apoptosis became apparent,HL-60 cells; HL-60 cells,6 hours
same,concentration at which apoptosis was first observed,HL-60 cells; [10],5 µM
same,time after which apoptosis was first observed,HL-60 cells; [10],4 h
same,degree of necrosis,"HL-60 cells; HL-60 cells, 10 μM, 16 hours",negligible
same,cytotoxicity at 10 µM,"HL-60 cells; Homo sapiens, HL-60, 16 h, read-out: % Apoptosis",38.6 ± 4.6%
